One molecule from US20240366649A1, “4-ETHYNYL-3-HYDROXY-TETRAHYDROFURANYL-ADENINE PHOSPHORAMIDATES AND RELATED COMPOUNDS AND THEIR USE IN TREATING MEDICAL CONDITIONS” (ROME THERAPEUTICS, INC., priority 2021, published 2024) can be followed below.

Holding throughout (format): cell-based
In assay [1] the test system is Ovarian cancer OVCAR-8 cells. The assay is described as follows: Cancer cell viability assay with 3D cell colonies (CellTiter-Glo), OVCAR-8. The conditions noted are these: Homo sapiens, 168 h; OVCAR-8, 3D methylcellulose colonies, 7 days. The method, then:
(§1) Cancer cell lines were cultured in the following media: • Ovarian cancer OVCAR-8 cells—RPMI media containing 10% FBS • Ovarian cancer SK-OV-3 cells—McCoy's 5a media containing 10% FBS • Ovarian cancer SW756 cells—L-15 (100% air)+10% FBS • Esophageal cancer TE-1 cells—RPMI-1640+10% FBS • Esophageal cancer KYSE-410 cells—RPMI-1640+5˜10% FBS • Esophageal cancer KYSE-70 cells—RPMI-1640+10% h.i.FBS. • Pharyngeal cancer FaDu cells—MEM+0.01 mM NEAA+10% FBS
(§2) Cell colony formation was tested using a 3D methylcellulose-based CellTiter-Glo (CTG) viability assay (Cat. No: G7573, Promega). Briefly, cells were inoculated into 96-well plates (at 1,500 cells per well) into a solution of 0.65% methylcellulose in growth media and incubated overnight at 37° C. in 5% CO2. The next day, serially diluted test compound (islatravir, 4′-ethynyl-2-fluoro-2′-deoxyadenosine) or positive control (cisplatin, Cat. No. 6J015A89, Qilu Pharma) were added at the indicated concentrations, and the cells were incubated for 7 days. On day seven, 100 μL of CTG reagent was added, and the plates were incubated at room temperature for 20 min. Luminescence was read on an Envision Multi Label Reader according to manufacturer's instructions. IC50 values were determined using the following calculation: […]

For assay [2], the system named is Ovarian cancer SK-OV-3 cells. Briefly: Cancer cell viability assay with 3D cell colonies (CellTiter-Glo), SK-OV-3. The conditions noted are these: Homo sapiens, 168 h; SK-OV-3, 3D methylcellulose colonies, 7 days. The method, then: as §1, §2
Background: In ATP-based viability assays light output follows the ATP content of the culture.

The subject of assay [3] is Ovarian cancer SW756 cells. The assay is described as follows: Cancer cell viability assay with 3D cell colonies (CellTiter-Glo), SW756. To be noted: Homo sapiens, 168 h; SW756, 3D methylcellulose colonies, 7 days. As to the method: as §1, §2
For assay [4], the system named is Esophageal cancer TE-1 cells. Briefly: Cancer cell viability assay with 3D cell colonies (CellTiter-Glo), TE-1. The conditions noted are these: Homo sapiens, 168 h; TE-1, 3D methylcellulose colonies, 7 days. The method, then:
as §1, §2

Assay [5] deals with Esophageal cancer KYSE-410 cells. The assay is described as follows: Cancer cell viability assay with 3D cell colonies (CellTiter-Glo), KYSE-410. The conditions noted are these: Homo sapiens, 168 h; KYSE-410, 3D methylcellulose colonies, 7 days. The method, then: as §1, §2
Assay [6] relates to IFN-β production in PBMCs. Briefly: Decitabine-stimulated human PBMC assay. To be noted: anti-CD3/anti-CD28, 10 μM decitabine, 5 days. As to the method:
EasySep buffer (32 mL, Stem Cell, cat. #20144) was used to dilute 8 mL of LRSC buffy coat (from fresh Leukopak) with gentle mixing. The diluted buffy coat (20 mL) was transferred into each of two SepMate 50 tubes, and the tubes were filled with 15 mL of Lyphoprep (Stem Cell, ct. #07851) density gradient. The SepMate tubes were then centrifuged at 1200G for 10 minutes at room temperature with the brake on. The top layer of supernatant was collected in SepMate tubes by quickly pouring it into a new 50 mL conical tube. The PBMCs were washed with EasySep buffer ×2 by centrifuging at 300G for 5 minutes. The cells were resuspended in 30 mL of EasySep and centrifuged at 100G for 5 minutes with the brake off, and the platelets were removed. The cells were then resuspended in 6 mL of 1×RBC lysis buffer (InvitroGen) and incubated at 37° C. for 5 minutes. Then, 25 mL of EasySep buffer was mixed into the tube and it was centrifuged at 300G for 5 minutes. The cells were resuspended in 10 mL of EasySep buffer and the cells were then counted with Cellometer (AO/PI). The PBMCs were resuspended in RPMI1640 (ThermoFisher)+10% FBS (HyClone)+p/s at 3×10^6/mL. The PBMCs (100 μL, 300 k PBMCs) were then seeded in a 96-well flat bottom microplate (Corning) that had been precoated with 100 μL of anti-CD3 antibody (10 μg/mL in PBS, Biolegend) or PBS at 4° C., one day before the assay was commenced. […]

As usually defined, the IC50 is the point on the concentration scale where inhibition reaches its midpoint. Take `C#C[C@]1(CO)O[C@@H](n2cnc3c(N)nc(F)nc32)C[C@@H]1O` [islatravir, 4′-ethynyl-2-fluoro-2′-deoxyadenosine]: the IC50 was ≤ 10 µM in assay [1]; ≤ 10 µM in assay [2]; > 30 µM in assay [3]; ≤ 10 µM in assay [4]; > 30 µM in assay [5]. In assay [6], the “production of IFN-β” value is recorded as “activated production of IFN-β”.
